The values below come from ChEMBL document CHEMBL1124571, “Cardiac glycoside-like structure and function of 5 beta,14 beta-pregnanes” (J Med Chem, 1989).

As a reminder, the IC50 is the concentration needed to halve the response being measured. A high value points to weaker potency in that assay.

For this assay, the target named is Sodium/potassium-transporting ATPase. Description: Compound is evaluated for inhibition of specific binding of [3H]ouabain to membranes from dog heart. On the set-up: species or system Canis lupus familiaris.

For `CC(=O)[C@H]1CCC2(O)C3CCC4CC(O)CCC4(C)C3CCC12C` (stereo partly drawn), the 50% inhibitory concentration (IC50) is > 400 µM. With `CC(=O)[C@@H]1CC[C@@]2(C)[C@@H](CC[C@@H]3[C@@H]2CC[C@]2(C)C([C@H](C)O)CC[C@@]32O)C1` (stereo partly drawn), the half-inhibitory concentration (IC50) was found to be 6 µM. Then `CC(=O)[C@H]1CC[C@@]2(O)[C@@H]3CC[C@H]4C[C@@H](O)CC[C@]4(C)[C@H]3CC[C@]12C`, with 21 µM; and `C[C@H](O)[C@H]1CC[C@@]2(O)[C@@H]3CCC4C[C@@H](OC5CC(O)C(O)C(CO)O5)CC[C@]4(C)[C@H]3CC[C@]12C` (stereo in doubt), with 0.06 µM; and `CC(=O)[C@H]1CC[C@@]2(C)[C@@H](CC[C@@H]3[C@@H]2CC[C@]2(C)[C@@H](C(C)=O)CC[C@@]32O)C1`, with 20 µM. Then `CC(=O)[C@H]1CC[C@@]2(O)[C@@H]3CC[C@H]4CC(=O)CC[C@]4(C)[C@H]3CC[C@]12C`, with 46 µM; and `C[C@H](O)[C@H]1CC[C@@]2(O)[C@@H]3CCC4C[C@@H](OC5CC(O)C(O)C(CO)O5)CC[C@]4(C)[C@H]3CC[C@]12C` (stereo in doubt; 5), with 0.4 µM. In turn, `CC(O)[C@H]1CC[C@@]2(O)[C@@H]3CCC4C[C@@H](O)CC[C@]4(C)[C@H]3CC[C@]12C` (stereo partly drawn) gave an IC50 of 6 µM.
